# Data from patent US20130085105A1, “Transdermal Administration Of Peptides” (The Provost, Fellows and Scholars of the College of Holy …, priority 2010, published 2013).
# Key:
# [1] = Prediction of permeability coefficient Kp and human steady-state plasma level
# Description: A further approach to estimating human plasma levels following transdermal administration was outlined by Howes et al. (ATLA, 24:81-106, 1996) and was based on a mass balance approach whereby the input and output quantities of drug are considered equal. Rewriting “input=output” for transdermal systems gives:
# A×Kp×Cappl=CL×Cp Eqn. 10.6
# where A is the area of application, Kp is the permeability coefficient of the drug through the skin, Cappl is the applied concentration, CL is the plasma clearance and Cp is the steady-state plasma concentration of the drug. Rearranging the equation to estimate Cp gives: […]
# A number of methods for determining Kp based on the lipophilicity and molecular weight of the drug in question are available. Potts and Guy (Pharm. Res., 9:663-669, 1992) found the following relationship:
# Another method of calculating Kp which makes use of in vitro data is described by Hewitt et al. (In vitro cutaneous disposition of a topical diclofenac lotion in human skin: Effect of a multidose regimen, in Percutaneous Absorption, Bronaugh, R. L. and Maibach, H. I. (Eds.), Marcel Dekker Inc., New York, 1999):
# Kp(cm/h)=absorption(μg)/[area×concentration(μg/cm^3)×time] Eqn. 10.11
# Values for Kp were calculated using Eqns. 10.9 and 10.10 using the MW value for Compound B di-oleate (1,767 g/mol) and its previously determined KOW value (340.43). Additionally, Eqn. […]
# [2] = pH of donor vehicles containing Compound B oleate; format: physicochemical
# Description: The donor vehicles described herein were prepared at or close to neutral pH; this pH is close to the pH at which the fatty acid salts were synthesized and isolated. Because this work focused upon fatty acid peptide salts, a neutral pH was preferred to maintain molecular pairing. As described by Fini et al. (Int. J. Pharm., 187:163-173, 1999), adverse pH conditions can cause salt/ion pairs to dissociate, resulting in the loss of many properties beneficial to increasing transdermal flux, for example lipophilicity. […] Significant dissociation would have led to distortion of the flux profiles due to the formation of free oleic acid, in itself a potent penetration enhancer.
# [3] = In vitro transdermal permeation, diffusion cell, pig epidermis; format: in vitro ADME, domestic pigs
# Description: The viable epidermal layer was removed from the flanks of freshly sacrificed four month-old female domestic pigs. The flank area of each animal was carefully shaved and the upper 200 μm of skin (Meyer, W., et al., Curr. Prob. Dermatol., 7: 39-52, 1978; de Jalón, et al., J. Control. Rel., 75:191-197, 2001) was harvested using an electric dermatome (Robbins Instruments, Chatham, N.J., U.S.A.). Pigskin epidermal specimens were frozen at −18° C. between layers of PBS-soaked tissue paper enclosed in aluminum foil for up to two weeks prior to use in in vitro permeation studies.
# A custom made finite dosing diffusion cell (AGB Scientific, Dublin, Ireland, FIG. 1) based upon and modified from the Keshary-Chien type diffusion cell was used for in vitro permeation studies.
# Three to five diffusion cells were used in each permeation experiment and monitoring was performed over a 48 hour period. The cells were linked in series to a thermostatically controlled circulation bath set at 35° C. to mimic human skin surface temperature. Each cell was placed on a stir-plate set at a defined stirring rate of 1,000 rpm. The surface area for permeation provided by each cell was 3.14 cm^2.
# Data collected from each permeation study included:
# 1) the average maximum flux obtained in 48 hours (Jmax),
# 2) the total absorption characterized as the total weight of peptide delivered transdermally into the receiver compartment over a 48 hour period,
# 3) the lag time to detectable flux which was equivalent to the latest sampling time at which no peptide was detectable by HPLC analysis of the receiver solution, and
# 4) an equivalent 48-hour steady state flux was determined by obtaining the slope of the best-fit line for a plot of cumulative flux per unit area versus time (described by McDaid, D. M. et al., Int. J. Pharm., 133:71-83, 1996).
# Fresh hairless mouse skin samples or fresh or freshly thawed pig skin samples were mounted onto the diffusion cell with the SC topmost and in contact with the donor system. A rubber or plastic ring was placed on top of the skin sample to secure it in position. The combination of the diffusion cell top, the skin and the rubber ring was securely fastened together by means of a threaded cap. A recorded volume of receiver solution was added to the receiver compartment and maintained at 35° C. The receiver solution was 60/40 (v/v) PBS/propylene glycol (pH 7.1). The propylene glycol fraction was used to increase the solubility of the somatostatin-fatty acid salts. Previous work reported by Morgan et al. (J. Pharm. Sci., 87:1213-1218, 1998) has shown that a 50/50 water/propylene glycol receptor solution had no detrimental effect on the barrier integrity of both hairless mouse and porcine skin.
# The receiver solution was allowed to equilibrate at 35° C. for 30 minutes. The experiment was initiated by the application of 1 ml of donor solution containing approximately 5 mg free base peptide in DMSO to the skin surface followed by sealing of the donor compartment with Parafilm®. A narrow-bore hypodermic needle was used to withdraw 1 ml samples from the receiver compartment via the sampling port; at each sampling time, an equal volume of drug-free receiver solution was immediately added back to the receiver compartment. Samples were analyzed by HPLC.
# HPLC determination of peptide content in the receiver solution along with the known surface area of skin used (3.14 cm^2) allowed for calculation of transdermal flux (in units of μg/cm^2/hr) for each time point. Panels 1 and 2 of FIG. 2 show flux profiles obtained for the oleate salts of Compound A and Compound B in DMSO which far exceeded the flux profiles for the myristate, octanoate, decanoate, linoleate, nonanote, acetate and laurate salts of Compound A as well as the acetate salt of Compound B in DMSO. […]
# [4] = pig epidermis overlaid with microporous polypropylene membrane, EtOH/Water/Cineole + 5% (w/v) HPC, 5 mg/ml
# [5] = pig epidermis, donor 55% EtOH 40% Water 5% Cineole, 5 mg/ml free base peptide
# [6] = pig epidermis, donor 80% Prop. Glycol 15% Decanol 5% Cineole
# [7] = pig epidermis, donor 80% Prop. Glycol 15% Dodecanol 5% Cineole
substance,measurement,setting,value
[4-(2-hydroxyethyl)]-1-piperazinylacetyl-D-Phe-c(Cys-Tyr-D-Trp-Lys-Abu-Cys)-Thr-NH2 [Compound B di-oleate],Kp Value Obtained,"[1]; Eqn. 10.11 from in vitro absorption across pig epidermis, optimized donor vehicle",0.0003476 cm/h
same,steady-state plasma level (Cp),"[1]; predicted for human, Eqn. 10.8 with Kp of Eqn. 10.11, area 20 cm^2, 5 mg/cm^3 applied",1.6998 ng/mL
same,pH,"[2]; approx. 5 mg/ml in 55% EtOH 40% H2O 5% 1,8-Cineole",6.89
same,pH,"[2]; approx. 5 mg/ml in 80% Prop. Glycol 15% Decanol 5% 1,8-Cineole",7.08
same,pH,"[2]; approx. 5 mg/ml in 80% Prop. Glycol 15% Dodecanol 5% 1,8-Cineole",7.56
same,Jmax,[3]; [4],4.200 μg/cm^2/hr
same,Jss,[3]; [4],0.309 μg/cm^2/hr
same,Lag Time,[3]; [4],1 h
same,Total Absorption,[3]; [4],56.89 μg/48 hr
same,Jmax,[3]; [5],9.224 μg/cm^2/hr
same,Jss,[3]; [5],5.552 μg/cm^2/hr
same,Lag Time,[3]; [5],1 h
same,Total Absorption,[3]; [5],814.44 μg/48 hr
same,Jmax,[3]; [6],6.085 μg/cm^2/hr
same,Jss,[3]; [6],4.539 μg/cm^2/hr
same,Lag Time,[3]; [6],3.5 h
same,Total Absorption,[3]; [6],917.18 μg/48 hr
same,Jmax,[3]; [7],3.983 μg/cm^2/hr
same,Jss,[3]; [7],3.335 μg/cm^2/hr
same,Lag Time,[3]; [7],5 h
same,Total Absorption,[3]; [7],600.35 μg/48 hr
